Laboratory results published in patent US8178543B2, “Bi- and tricyclic fused pyrimidines as tyrosine kinase inhibitors” (Takeda Pharmaceutical Company Limited, priority 2004, dated 2012).

Tests used:
[1] = target: T1, EGF receptor intracellular domain protein (Homo sapiens, UniProt P00533); experiment: Determination of EGF receptor kinase inhibitory activity; assay type: biochemical; conditions: 1.0 μM test compound; biotinyl-poly-Glu:Tyr (4:1), AlphaScreen, 25° C., 10 min; read-out: EGF receptor kinase Inhibitory rate (%) at 1.0 μM
T1 construct: encoding EGF receptor intracellular domain region, so that the protein contains an N-terminal Flag tag; made in house; host or cells: SF-21 insect cells, recombinant baculovirus BAC-EGFR
T1 sequence (P00533 669-1210 limits assumed): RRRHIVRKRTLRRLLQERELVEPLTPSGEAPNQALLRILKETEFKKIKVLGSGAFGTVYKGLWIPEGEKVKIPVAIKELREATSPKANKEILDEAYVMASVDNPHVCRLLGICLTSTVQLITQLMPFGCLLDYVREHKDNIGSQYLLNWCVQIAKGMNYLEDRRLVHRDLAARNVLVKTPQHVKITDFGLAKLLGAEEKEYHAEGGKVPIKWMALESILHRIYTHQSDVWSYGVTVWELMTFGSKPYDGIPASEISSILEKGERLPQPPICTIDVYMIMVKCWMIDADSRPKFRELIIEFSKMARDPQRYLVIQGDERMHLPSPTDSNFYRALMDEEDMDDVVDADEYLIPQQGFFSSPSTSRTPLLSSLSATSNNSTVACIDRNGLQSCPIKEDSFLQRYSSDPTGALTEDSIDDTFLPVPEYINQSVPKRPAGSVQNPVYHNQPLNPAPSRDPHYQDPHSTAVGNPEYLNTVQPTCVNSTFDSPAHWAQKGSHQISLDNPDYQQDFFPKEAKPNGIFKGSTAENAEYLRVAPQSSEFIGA
Description: Human EGF receptor gene was cloned by RT-PCR using total RNA prepared from A431 cells as a template. The primer for RT-PCR was prepared from nucleotide sequence (Genbank Accession XM—167493) information of EGF receptor gene by adding a nucleotide sequence encoding flag peptide and a restriction enzyme recognition sequence to a nucleotide sequence (2182-3810 of Genbank Accession XM—167493) encoding EGF receptor intracellular domain region, so that the protein contains an N-terminal Flag tag. The primer nucleotide sequence is shown below.
The RT reaction was conducted using SuperScript First-Strand Synthesis System for RT-PCR (Invitrogen) and the PCR reaction was conducted using a KOD-plus kit (TOYOBO). The obtained PCR product was electrophoresed on agarose gel (1%), the DNA fragment amplified by PCR was recovered from the gel, and then digested with restriction enzymes Sal I and Sph I. The DNA treated with the restriction enzymes was electrophoresed on agarose gel (1%), and the obtained DNA fragment was recovered and ligated to plasmid pFASTBAC1 (Invitrogen) digested with restriction enzymes Sal I and Sph I to give expression plasmid pFB-EGFR. The nucleotide sequence of insertion fragment was confirmed and found to be identical with the nucleotide sequence (2182-3810 of Genbank Accession XM—167493) of EGFR intracellular domain. Furthermore, using BAC-TO-BAC Baculovirus Expression System (Invitrogen), virus stock BAC-EGFR of recombinant baculovirus was prepared.
SF-21 cells were sown at 1×10^6 cells/mL to Sf-900II SFM medium (1 L, Invitrogen) containing 10% fetal bovine serum (trace), 50 mg/L gentamicin (Invitrogen) and 0.1% Pluronic F-68 (Invitrogen), and shaking culture was performed using a 2 L volume Erlenmeyer flask at 27° C., 100 rpm. After culturing for 24 hrs, recombinant baculovirus BAC-EGFR (13.4 mL) was added, and the mixture was further cultured for 3 days. The culture medium was centrifuged at 2,000 rpm for 5 min. to give virus-infected cells. The infected cells were washed with a phosphate buffered saline (Invitrogen), centrifuged under the same conditions, and the cells were preserved at −80° C. The cryopreserved cells were thawed in ice, suspended in buffer A (50 mM Tris buffer (30 mL, pH7.4) containing 20% glycerol, 0.15 M NaCl) supplemented with Complete Protease Inhibitor (Boehringer), and ruptured 3 times with a Polytron homogenizer (Kinematica) at 20,000 rpm for 30 sec. The ruptured medium was clarified by centrifugation at 40,000 rpm for 30 min. and filtered with a 0.45 μm filter. The filtrate was passed through a column packed with Anti-FLAG M2 Affinity Gel (4 mL, Sigma) at a flow rate of about 0.5 mL/min. The column was washed with buffer A, and eluted with buffer A containing 100 μg/mL of FLAG peptide. The eluate was concentrated with Vivaspin 20 (Vivascience) having a molecular weight cut off of 30K. The buffer of this concentrate was exchanged using NAPE 25 column (Amersham Bioscience) equilibrated with buffer A. The fractions containing EGF receptor intracellular domain protein were collected, glycerol was added to the final concentration of 50% and cryopreserved at −80° C.
A test compound dissolved in dimethyl sulfoxide (DMSO) was diluted with a buffer (50 mM Tris-HCl (pH 7.5), 5 mM MgCl2, 5 mM MnCl2, 2 mM dithiothreitol, 0.01% Tween-20). To this compound solution (5 μL) was added a buffer (10 μL) containing 250 ng/mL of EGF receptor intracellular domain protein and 250 ng/mL of biotin labeled polypeptide biotinyl-poly-Glu:Tyr (4:1) (CIS bio International). […]

[2] = system: human breast cancer cell BT-474; experiment: Inhibitory action on breast cancer cell BT-474 proliferation in vitro; assay type: cell-based; conditions: 120 h, BT-474 cells, cultured 5 days, SRB staining
Description: A suspension of human breast cancer cell BT-474 (100 μl (6,000 cells)) were sown to a 96-well microplate and cultured in an incubator (37° C., 5% carbon dioxide). On the following day, 100 μl of a solution of each test compound, which was previously diluted 2-fold, was added, and the cells were cultured for 5 days. After the culture medium containing the test compound was removed, the cells were washed and fixed with 50% trichloroacetic acid, after which a 0.4% (w/v) SRB solution (dissolved in 1% acetic acid) was added to fix and stain the cell protein (Skehan et al., Journal of the National Cancer Institute, Vol. 82, pp. 1107-1112, 1990). After washing with a 1% acetic acid solution, 100 μl of an extract (10 mM Tris solution) was added to extract the pigment, and absorbance was measured at an absorption wavelength of 550 nm to quantify the amount of cells as protein content. Taking as 100% the protein content for the control group, which received no test compound solution, the ratio of the residual protein content for each treatment group was determined, and the compound concentration required to achieve 50% suppression of the residual cell content relative to the control (IC50 value) was calculated.

Row | Structure (SMILES) | inhibition at 1 µM [1] [%] | IC50 [2] [nM]
1 | Cn1c(/C=C/CO)cc2ncnc(Nc3ccc(OCc4cccc(F)c4)c(Cl)c3)c21 [Example 22, (2E)-3-[4-({3-chloro-4-[(3-fluorobenzyl)oxy]phenyl}amino)-5-methyl-5H-pyrrolo[3,2-d]pyrimidin-6-yl]-2-propen-1-ol] | 98.5 | 
2 | OCCn1ccc2ncnc(Nc3ccc(OCc4cccc(F)c4)c(Cl)c3)c21 [Example 41, 2-[4-({3-chloro-4-[(3-fluorobenzyl)oxy]phenyl}amino)-5H-pyrrolo[3,2-d]pyrimidin-5-yl]ethanol] | 98.9 | 
3 | CN(C)C/C=C/C(=O)NCc1cc2ncnc(Nc3ccc(OCc4cccc(F)c4)c(Cl)c3)c2[nH]1 [Example 82, (2E)-N-{[4-({3-chloro-4-[(3-fluorobenzyl)oxy]phenyl}amino)-5H-pyrrolo[3,2-d]pyrimidin-6-yl]methyl}-4-(dimethylamino)but-2-enamide] |  | < 100
4 | CN(C)C/C=C/C(=O)NC/C=C/c1cc2ncnc(Nc3ccc(OCc4cccc(F)c4)c(Cl)c3)c2[nH]1 [Example 92, (2E)-N-{(2E)-3-[4-({3-chloro-4-[(3-fluorobenzyl)oxy]phenyl}amino)-5H-pyrrolo[3,2-d]pyrimidin-6-yl]prop-2-enyl}-4-(dimethylamino)but-2-enamide] | 98 | < 100
5 | OCCOCCn1ccc2ncnc(Nc3ccc(OCc4cccc(F)c4)c(Cl)c3)c21 [Example 138, 2-{2-[4-({3-chloro-4-[(3-fluorobenzyl)oxy]phenyl}amino)-5H-pyrrolo[3,2-d]pyrimidin-5-yl]ethoxy}ethanol] | 99 | 
6 | OCCOCCn1ccc2ncnc(Nc3ccc(Oc4cccc(C(F)(F)F)c4)c(Cl)c3)c21 [Example 147, 2-{2-[4-({3-Chloro-4-[3-(trifluoromethyl)phenoxy]phenyl}amino)-5H-pyrrolo[3,2-d]pyrimidin-5-yl]ethoxy}ethanol] | 96 | 
7 | CS(=O)(=O)CC(=O)NCCn1ccc2ncnc(Nc3ccc(Oc4cccc(C(F)(F)F)c4)c(Cl)c3)c21 [Example 160, N-{2-[4-({3-chloro-4-[3-(trifluoromethyl)phenoxy]phenyl}amino)-5H-pyrrolo[3,2-d]pyrimidin-5-yl]ethyl}-2-(methylsulfonyl)acetamide] | 97 | 
8 | CC(C)(C(=O)NCCn1ccc2ncnc(Nc3ccc(Oc4cccc(C(F)(F)F)c4)c(Cl)c3)c21)S(C)(=O)=O [Example 169, N-{2-[4-({3-chloro-4-[3-(trifluoromethyl)phenoxy]phenyl}amino)-5H-pyrrolo[3,2-d]pyrimidin-5-yl]ethyl}-2-methyl-2-(methylsulfonyl)propanamide] |  | < 100
9 | CC(C)(C)S(=O)(=O)CCOCCn1ccc2ncnc(Nc3ccc(Oc4cccc(C(F)(F)F)c4)c(Cl)c3)c21 [Example 176, 5-{2-[2-(tert-butylsulfonyl)ethoxy]ethyl}-N-{3-chloro-4-[3-(trifluoromethyl)phenoxy]phenyl}-5H-pyrrolo[3,2-d]pyrimidin-4-amine] |  | < 100
